According to patent US20230094753A1, “NANOSTRUCTURE LIPID CARRIER DELIVERY SYSTEM, COMPOSITION, AND METHODS” (priority 2020, published 2023):

Test: CBD solubility in lipid excipients (about 0.345 g CBD exposed to 10 ml lipid)
Type: physicochemical
Conditions: approx. 0.345 g CBD in 10 ml
Description: Approximately 0.345 g of CBD was exposed to 10 ml of the listed lipid and solubility was assessed.

## C=C(C)[C@@H]1CCC(C)=C[C@H]1c1c(O)cc(CCCCC)cc1O [CBD, cannabidiol]
Solvent 1: Apricot Kernel Oil PEG-6 Esters
  SOLUBILITY: Medium CBD Solubility
Solvent 2: Corn Oil PEG-6 Ester
  SOLUBILITY: Medium CBD Solubility
Solvent 3: Ethoxydiglycol
  SOLUBILITY: Stability Problematic
Solvent 4: Glycerine soja (Soyean) oil (and) Glyceryl Distearate (and) Polyglyceryl-3 Dioleate
  SOLUBILITY: Medium CBD Solubility
Solvent 5: Glyceryl Linoleate
  SOLUBILITY: Bad CBD Solubility
Solvent 6: Glyceryl Oleate
  SOLUBILITY: Bad CBD Solubility
Solvent 7: PEG-8 Caprylic/Capric Glycerides
  SOLUBILITY: Stability Problematic
Solvent 8: Polyglyceryl-3-diolate
  SOLUBILITY: Bad CBD Solubility
Solvent 9: Propylene Glycol Caprate
  SOLUBILITY: Good CBD Solubility
Solvent 10: Propylene Glycol Laurate
  SOLUBILITY: Medium CBD Solubility
Solvent 13: PEG-8
  SOLUBILITY: Medium CBD Solubility
Solvent 18: Caprylic/Capric Triglyceride
  SOLUBILITY: Medium CBD Solubility
Solvent 19: PEG-8 Carylic/Capric Glycerides
  SOLUBILITY: Good CBD Solubility
Solvent 20: Glyceryl Caprylate/Caprate
  SOLUBILITY: Medium CBD Solubility
Solvent 21: Propylene Glycol Monocaprylate
  SOLUBILITY: Good CBD Solubility
Solvent 22: Olea Europaea (Olive) Oil
  SOLUBILITY: Bad CBD Solubility
Solvent 23: Glycine Soja (Soybean) Oil
  SOLUBILITY: Medium CBD Solubility
